Data as given in patent publication US11661426B2, “Imidazole-containing inhibitors of ALK2 kinase” (BioCryst Pharmaceuticals, Inc., priority 2017, dated 2023).

Molecular target: ALK2 (Homo sapiens (Human), UniProt Q04771)
Test: ALK2 inhibition, LanthaScreen Eu Kinase Binding Assay (ThermoFisher Scientific / Life Technologies)
Conditions: read-out: Measured Ki (IC50) Value for Compounds: IC50
Protocol: Biochemical assays to measure the inhibitory effects of the compounds were performed by ThermoFisher Scientific (Life Technologies). ALK2 inhibition was tested using LanthaScreen™ Eu Kinase Binding Assay screening protocol.

ALK2, sequence (Q04771 21-509): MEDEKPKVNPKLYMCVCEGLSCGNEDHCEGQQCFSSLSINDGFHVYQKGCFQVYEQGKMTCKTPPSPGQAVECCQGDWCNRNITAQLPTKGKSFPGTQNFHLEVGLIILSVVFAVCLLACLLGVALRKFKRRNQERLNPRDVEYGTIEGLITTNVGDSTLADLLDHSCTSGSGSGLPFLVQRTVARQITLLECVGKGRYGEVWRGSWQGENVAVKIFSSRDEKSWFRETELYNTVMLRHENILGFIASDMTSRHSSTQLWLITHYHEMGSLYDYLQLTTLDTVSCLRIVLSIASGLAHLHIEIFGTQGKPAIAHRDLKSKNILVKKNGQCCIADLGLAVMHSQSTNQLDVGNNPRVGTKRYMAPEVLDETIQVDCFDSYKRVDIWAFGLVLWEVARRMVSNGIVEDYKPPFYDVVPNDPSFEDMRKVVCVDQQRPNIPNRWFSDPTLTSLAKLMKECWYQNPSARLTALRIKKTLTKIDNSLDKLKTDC

COc1cc(-n2cnc(Nc3nc4c(c(N5CCC[C@H]5C(N)=O)n3)CNCC4)c2)cc(OC)c1OC [Compound 193c, (S)-1-(2-((1-(3,4,5-trimethoxyphenyl)-1H-imidazol-4-yl)amino)-5,6,7,8-tetrahydropyrido[4,3-d]pyrimidin-4-yl)pyrrolidine-2-carboxamide]
IC50: < 100 nM

COc1cc(-n2cnc(Nc3nc(N4CCC[C@H]4CO)c4c(C)nn(C)c4n3)c2)cc(OC)c1OC [Compound 377b, (S)-(1-(1,3-dimethyl-6-((1-(3,4,5-trimethoxyphenyl)-1H-imidazol-4-yl)amino)-1H-pyrazolo[3,4-d]pyrimidin-4-yl)pyrrolidin-2-yl)methanol]
IC50: < 100 nM

COc1cc(-n2cnc(Nc3nc4c(c(N5CCC[C@H]5CO)n3)CN(C(=O)c3ccc(C#N)cc3)CC4)c2)cc(OC)c1OC [Compound 241a, (S)-4-(4-(2-(hydroxymethyl)pyrrolidin-1-yl)-2-((1-(3,4,5-trimethoxyphenyl)-1H-imidazol-4-yl)amino)-5,6,7,8-tetrahydropyrido[4,3-d]pyrimidine-6-carbonyl)benzonitrile]
IC50: < 100 nM

COc1ccc(-n2cnc(Nc3nc(N4CCC[C@H]4CO)nn4cccc34)c2)cc1 [Compound 55c, (S)-(1-(4-((1-(4-methoxyphenyl)-1H-imidazol-4-yl)amino)pyrrolo[2,1-f][1,2,4]triazin-2-yl)pyrrolidin-2-yl)methanol]
IC50: < 100 nM

OC[C@@H]1CCCN1c1nc(Nc2cn(-c3cn(C4CC4)cn3)cn2)c2cccn2n1 [Compound 449d, (S)-(1-(4-((1′-cyclopropyl-1′H-[1,4′-biimidazol]-4-yl)amino)pyrrolo[2,1-f][1,2,4]triazin-2-yl)pyrrolidin-2-yl)methanol]
IC50: < 100 nM

COc1cc(-n2cnc(Nc3nc(N4CCC[C@H]4CO)c4occc4n3)c2)cc(OC)c1OC [Compound 148b, (S)-(1-(2-((1-(3,4,5-trimethoxyphenyl)-1H-imidazol-4-yl)amino)furo[3,2-d]pyrimidin-4-yl)pyrrolidin-2-yl)methanol]
IC50: < 100 nM

COc1cc(-n2cnc(Nc3nc(N4CC[C@H](CO)C4)c4cccn4n3)c2)cc(OC)c1OC [Compound 333b, (S)-(1-(2-((1-(3,4,5-trimethoxyphenyl)-1H-imidazol-4-yl)amino)pyrrolo[2,1-f][1,2,4]triazin-4-yl)pyrrolidin-3-yl)methanol]
IC50: < 100 nM

COc1cc(-n2cnc(Nc3nc(N4CCC[C@H]4CO)c4ncccc4n3)c2)cc(OC)c1OC [Compound 175b, (S)-(1-(2-((1-(3,4,5-trimethoxyphenyl)-1H-imidazol-4-yl)amino)pyrido[3,2-d]pyrimidin-4-yl)pyrrolidin-2-yl)methanol]
IC50: < 100 nM

COc1cc(-n2cnc(Nc3nc(N4CCC[C@H]4CO)c4c(C)nn(C(C)C)c4n3)c2)cc(OC)c1OC [Compound 456c, (S)-(1-(1-isopropyl-3-methyl-6-((1-(3,4,5-trimethoxyphenyl)-1H-imidazol-4-yl)amino)-1H-pyrazolo[3,4-d]pyrimidin-4-yl)pyrrolidin-2-yl)methanol]
IC50: < 100 nM

COc1cc(-n2cnc(Nc3nc(N4CCCC4)c4c(ccn4S(=O)(=O)c4ccc(C)cc4)n3)c2)cc(OC)c1OC [Compound 199b, 4-(pyrrolidin-1-yl)-5-tosyl-N-(1-(3,4,5-trimethoxyphenyl)-1H-imidazol-4-yl)-5H-pyrrolo[3,2-d]pyrimidin-2-amine]
IC50: > 1000 nM

COc1cc(-n2cnc(Nc3nc(N4CCC[C@H]4C(N)=O)nc4c3c(C)nn4C)c2)cc(OC)c1OC [Compound 373c, (S)-1-(1,3-dimethyl-4-((1-(3,4,5-trimethoxyphenyl)-1H-imidazol-4-yl)amino)-1H-pyrazolo[3,4-d]pyrimidin-6-yl)pyrrolidine-2-carboxamide]
IC50: > 1000 nM

COCCN1CCN(Cc2ccc3c(Nc4cn(-c5cc(OC)c(OC)c(OC)c5)cn4)nc(N4CCC[C@H]4CO)nn23)CC1 [Compound 114b, (S)-(1-(7-((4-(2-methoxyethyl)piperazin-1-yl)methyl)-4-((1-(3,4,5-trimethoxyphenyl)-1H-imidazol-4-yl)amino)pyrrolo[2,1-f][1,2,4]triazin-2-yl)pyrrolidin-2-yl)methanol]
IC50: < 100 nM

COc1cc(-n2cnc(Nc3nc(N4CCC[C@@H]4CO)nc4cc(N5CCC[C@@H]5CO)ccc34)c2)cc(OC)c1OC [Compound 306a, ((2R,2′R)-1,1′-(4-((1-(3,4,5-trimethoxyphenyl)-1H-imidazol-4-yl)amino)quinazoline-2,7-diyl)bis(pyrrolidine-2,1-diyl))dimethanol]
IC50: < 100 nM

COc1cc(-n2cnc(Nc3nc(N4CCC[C@H]4C(N)=O)nc4c3CNC4)c2)cc(OC)c1OC [Compound 360c, (S)-1-(4-(1-(3,4,5-trimethoxyphenyl)-1H-imidazol-4-ylamino)-6,7-dihydro-5H-pyrrolo[3,4-d]pyrimidin-2-yl)pyrrolidine-2-carboxamide]
IC50: < 100 nM

COc1cc(-n2cnc(Nc3nc(N4CCC[C@@H]4C(N)=O)nc4cc(F)ccc34)c2)cc(OC)c1OC [Compound 288a, (R)-1-(7-fluoro-4-((1-(3,4,5-trimethoxyphenyl)-1H-imidazol-4-yl)amino)quinazolin-2-yl)pyrrolidine-2-carboxamide]
IC50: < 100 nM

COc1cc(-n2cnc(Nc3nc(N4CCC[C@@H]4CO)nc4c3COC4)c2)cc(OC)c1OC [Compound 282a, (R)-(1-(4-((1-(3,4,5-trimethoxyphenyl)-1H-imidazol-4-yl)amino)-5,7-dihydrofuro[3,4-d]pyrimidin-2-yl)pyrrolidin-2-yl)methanol]
IC50: < 100 nM

COc1cc(-c2ccc(Nc3nc(N4CCC[C@H]4CO)c4ccccc4n3)nc2)cc(OC)c1OC [Compound 357d, (S)-(1-(2-((5-(3,4,5-trimethoxyphenyl)pyridin-2-yl)amino)quinazolin-4-yl)pyrrolidin-2-yl)methanol]
IC50: > 1000 nM

COc1cc(-n2cnc(Nc3nc(N4CCC[C@@H]4C(N)=O)c4cccn4n3)c2)cc(OC)c1OC [Compound 176b, (R)-1-(2-((1-(3,4,5-trimethoxyphenyl)-1H-imidazol-4-yl)amino)pyrrolo[2,1-f][1,2,4]triazin-4-yl)pyrrolidine-2-carboxamide]
IC50: 100 to 1000 nM

(R)-(1-(5-((1-(3,4,5-trimethoxyphenyl)-1H-imidazol-4-yl)amino)thiazolo[5,4-d]pyrimidin-7-yl)pyrrolidin-2-yl)methanol [Compound 323b]
IC50: < 100 nM

COc1cc(-n2cnc(Nc3nc(N4CCC[C@H]4C(N)=O)nc4cc(F)ccc34)c2)cc(OC)c1OC [Compound 266c, (S)-1-(7-fluoro-4-((1-(3,4,5-trimethoxyphenyl)-1H-imidazol-4-yl)amino)quinazolin-2-yl)pyrrolidine-2-carboxamide]
IC50: < 100 nM

OC[C@@H]1CCCN1c1nc(Nc2cn(-c3ccc4c(c3)OCCO4)cn2)c2cccn2n1 [Compound 423e, (S)-(1-(4-((1-(2,3-dihydrobenzo[b][1,4]dioxin-6-yl)-1H-imidazol-4-yl)amino)pyrrolo[2,1-f][1,2,4]triazin-2-yl)pyrrolidin-2-yl)methanol]
IC50: 100 to 1000 nM

OC[C@@H]1CCCN1c1nc(Nc2nc3ccccc3o2)c2sccc2n1 [Compound 352c, (S)-(1-(4-(benzo[d]oxazol-2-ylamino)thieno[3,2-d]pyrimidin-2-yl)pyrrolidin-2-yl)methanol]
IC50: > 1000 nM

COc1cc(-n2cnc(Nc3nc(N4CCC[C@H]4CO)c4cccn4n3)c2)cc(OC)c1OC [Compound 96b, (S)-(1-(2-((1-(3,4,5-trimethoxyphenyl)-1H-imidazol-4-yl)amino)pyrrolo[2,1-f][1,2,4]triazin-4-yl)pyrrolidin-2-yl)methanol]
IC50: < 100 nM

COc1cc(-n2cnc(Nc3nc(N4CCC[C@H]4CO)nc4cc(N5CCCCC5)ccc34)c2)cc(OC)c1OC [Compound 358a, (S)-(1-(7-(piperidin-1-yl)-4-((1-(3,4,5-trimethoxyphenyl)-1H-imidazol-4-yl)amino)quinazolin-2-yl)pyrrolidin-2-yl)methanol]
IC50: < 100 nM

COc1cc(-n2cnc(Nc3nc(N4CCC[C@H]4CO)nc4[nH]cc(C#N)c34)c2)cc(OC)c1OC [Compound 397a, (S)-2-(2-(hydroxymethyl)pyrrolidin-1-yl)-4-((1-(3,4,5-trimethoxyphenyl)-1H-imidazol-4-yl)amino)-7H-pyrrolo[2,3-d]pyrimidine-5-carbonitrile]
IC50: 100 to 1000 nM

COc1cc(-n2cnc(Nc3nc(N4CCC[C@H]4CO)c4ccc(-c5cccc(N)c5)cc4n3)c2)cc(OC)c1OC [Compound 361c, (S)-(1-(7-(3-aminophenyl)-2-((1-(3,4,5-trimethoxyphenyl)-1H-imidazol-4-yl)amino)quinazolin-4-yl)pyrrolidin-2-yl)methanol]
IC50: < 100 nM

COc1cc(-n2cnc(Nc3nc(N4CCC[C@H]4C(N)=O)nc4ccn(S(=O)(=O)c5ccc(C)cc5)c34)c2)cc(OC)c1OC [Compound 162a, (S)-1-(5-tosyl-4-((1-(3,4,5-trimethoxyphenyl)-1H-imidazol-4-yl)amino)-5H-pyrrolo[3,2-d]pyrimidin-2-yl)pyrrolidine-2-carboxamide]
IC50: 100 to 1000 nM

COc1cc(-n2cnc(Nc3nc(N4CCC[C@H]4CO)c4c(ncn4C)n3)c2)cc(OC)c1OC [Compound 389c, (S)-(1-(7-methyl-2-((1-(3,4,5-trimethoxyphenyl)-1H-imidazol-4-yl)amino)-7H-purin-6-yl)pyrrolidin-2-yl)methanol]
IC50: < 100 nM

O=C(c1cnc(Nc2nc(N3CCC[C@H]3CO)nn3cccc23)s1)N1CCC[C@H]1CO [Compound 467c, ((S)-2-(hydroxymethyl)pyrrolidin-1-yl)(2-((2-((S)-2-(hydroxymethyl)pyrrolidin-1-yl)pyrrolo[2,1-f][1,2,4]triazin-4-yl)amino)thiazol-5-yl)methanone]
IC50: > 1000 nM

COc1cc(-n2cnc(Nc3nc(N4CCC[C@H]4CO)c4c(C)nn([C@H]5C[C@@H](O)C5)c4n3)c2)cc(OC)c1OC [Compound 466c, (cis)-3-(4-((S)-2-(hydroxymethyl)pyrrolidin-1-yl)-3-methyl-6-((1-(3,4,5-trimethoxyphenyl)-1H-imidazol-4-yl)amino)-1H-pyrazolo[3,4-d]pyrimidin-1-yl)cyclobutanol]
IC50: < 100 nM
